Results taken from patent publication US7649002B2, “(3,5-dimethylpiperidin-1yl)(4-phenylpyrrolidin-3-yl)methanone derivatives as MCR4 agonists” (Pfizer Inc, priority 2004, dated 2010).

How the values were obtained:
[1] = molecular target: T1, human MCR3 receptor (Homo sapiens, UniProt P41968); experiment: MCR3 standard functional assay (Protocol B): cAMP AlphaScreen in HEK cells; format: cell-based; settings: Table 5
T1 construct: expressed in transfected cells
Experimental: (§1) Stimulation of adenylate cyclase following receptor activation is a widely used measure of functional activity for a number of receptor systems. The functional assay to measure cyclic AMP (cAMP) utilises human embryonic kidney (HEK) cells that stably express the human melanocortin MCR1, MCR3 or MCR4 receptor. Activation of MCR1, MCR3 or MCR4 receptors stimulates adenylate cyclase, generating cAMP, which is measured using AlphaScreen™ (PerkinElmer assay kits.
(§2) The AlphaScreen™ cAMP assay kit consists of ‘donor beads’, ‘acceptor beads’, and biotinylated cAMP which links the different beads together. Excitation of this linked complex at […] in the Fusion™-α microplate analyser results in light emission between […].
(§3) (i) MCR1. MCR3 and MCR4 Standard Functional Assay Methodology [Assay Protocol A, B AND C Respectively]
(§4) Determination of activity against the human MCR1, MCR3 and MCR4 receptor subtypes was carried out for compounds according to the present invention using three immortalised human embryonic kidney (HEK) cell lines that had been biologically engineered to express the human melanocortin MCR1, MCR3 or MCR4 receptor subtypes. These cell lines were engineered using protocols akin to those outlined by Gouarderes et al (Gouarderes, C., (2002) Neuroscience, 115(2); 349-361).
(§5) Such-compound-induced activation of these MCR1, MCR3 or MCR4 receptors lead to the stimulation of the cellular enzyme adenylate cyclase, which in turn lead to the cellular generation, and intra-cellular accumulation, of cyclic adenosine monophosphate (cAMP). […] Intracellular levels of cAMP were quantified using the commercially available AlphaScreen™ assay kits from PerkinElmer. A detailed assay protocol and an explanation of the concept underlying this kit is available through the PerkinElmer website (www.perkinelmer.com). The protocol listed below provides a summary this information.
(§6) The quantity of intracellular cAMP produced by compound-induced activation of the MCR1, MCR3 and MCR4 receptors in these three cell lines was measured using a Fusion™-α microplate analyser set to stimulate at a wavelength of 680 nm and to measure the energy emitted at wave lengths between […]. Compound-induced increases in MCR1, MCR3 or MCR4 receptor activation were subsequently quantified as a decrease in the quantity of light emitted at wavelengths between […]. Data analysis was subsequently performed using a curve-fitting program and the apparent potency of the test compound (expressed as an EC50 and defined as the effective compound concentration that elicited 50% of the maximum compound-induced response) extrapolated from the fitted curve.
Stimulation buffer (as per AlphaScreen™ protocol): HBSS supplemented with 0.5 mM IBMX, 5 mM HEPES, 0.1% (w/v) BSA and 10 mM MgCl2.
Lysis buffer (as per AlphaScreen™ protocol): 5 mM HEPES solution supplemented with 0.1% (w/v) BSA and 0.3% (v/v) Tween-20.
Detection mix (as per AlphaScreen™ protocol): Lysis buffer supplemented with the biotinylated cAMP (10 nM) and Donor beads (10 μg/ml) as supplied in the AlphaScreenT cAMP assay kit.
For the MCR1, MCR3 and MCR4 standard functional assay methodologies compounds were initially dissolved in DMSO to give a compound concentration of 4 mM and then further diluted for the assay in stimulation buffer to give actual concentrations 2-fold greater than that desired as the final assay concentration.
The three HEK cell lines, as detailed hereinbefore, expressing the human MCR1, MCR3 or MCR4 receptor subtypes were grown in T225 vent cap flasks containing 50 ml of growth medium (DMEM supplemented with 10% (v/v) FCS, 2 mM L-Glutamine, 25 mM HEPES and 1.0 mg/ml Geneticin) and maintained in a cell incubator at a temperature of 37° C. and in an environment containing 5% CO2. Cells were harvested when they reached 80-90% confluency by first removing the existing growth medium and then washing with PBS that had been pre-warmed to a temperature of 37° C. […]

[2] = molecular target: T2, human MCR4 receptor (Homo sapiens, UniProt P32245); experiment: MCR4 standard functional assay (Protocol C): cAMP AlphaScreen in HEK cells; format: cell-based; settings: Table 5
T2 construct: expressed in transfected cells
Experimental: as §1, §2, §3, §4, §5, §6
Stimulation buffer (as per AlphaScreen™ protocol): HBSS supplemented with 0.5 mM IBMX, 5 mM HEPES, 0.1% (w/v) BSA and 10 mM MgCl2. […]

T1 sequence (P41968 whole entry): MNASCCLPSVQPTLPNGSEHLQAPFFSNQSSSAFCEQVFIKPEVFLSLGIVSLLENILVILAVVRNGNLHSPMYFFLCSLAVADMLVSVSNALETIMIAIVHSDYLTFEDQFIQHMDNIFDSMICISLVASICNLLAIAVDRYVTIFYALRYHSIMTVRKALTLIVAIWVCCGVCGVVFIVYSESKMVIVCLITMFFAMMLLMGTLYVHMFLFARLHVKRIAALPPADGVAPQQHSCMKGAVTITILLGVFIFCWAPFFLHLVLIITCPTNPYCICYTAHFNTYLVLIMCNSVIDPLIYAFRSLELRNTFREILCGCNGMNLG
T2 sequence (P32245 whole entry): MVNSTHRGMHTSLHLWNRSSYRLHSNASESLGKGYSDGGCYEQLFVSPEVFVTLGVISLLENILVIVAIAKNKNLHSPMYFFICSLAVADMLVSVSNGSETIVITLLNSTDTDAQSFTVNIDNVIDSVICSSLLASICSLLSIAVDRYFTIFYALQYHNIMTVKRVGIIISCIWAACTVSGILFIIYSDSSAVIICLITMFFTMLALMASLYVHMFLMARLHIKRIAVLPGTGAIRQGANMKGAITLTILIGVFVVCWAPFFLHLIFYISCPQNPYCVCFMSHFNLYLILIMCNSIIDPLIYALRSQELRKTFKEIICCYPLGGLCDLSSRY

In the case of `CCCC[C@@]1(O)[C@H](C)CN(C(=O)[C@@H]2CN(C(C)(C)C)C[C@H]2c2ccc(F)cc2F)C[C@@H]1C` [Example 3, (3R,4R,5S)-4-Butyl-1-{[(3S,4R)-1-tert-butyl-4-(2,4-difluorophenyl)pyrrolidin-3-yl]carbonyl}-3,5-dimethylpiperidin-4-ol], the “Selectivity MCR3/MCR4” value ([1]; MCR4 by Protocol C) is reported as 60, the EC50 ([1]; Protocol B) is reported as 2620 nM and the EC50 [2] is reported as 44 nM.
